Experimental data from ChEMBL document CHEMBL1156407, “The antiplasmodial activity of isolates from Ajuga remota” (J Nat Prod, 2002).
Calls of active or inactive are those of the source. No cut-off for these calls is given here.

Assays:
[1] = Cytotoxicity against human A431 cells by MTT assay; assay type: cell-based, A-431; details: read-out: ED50 (the source's name)
[2] = Selectivity index, ratio of ED50 for human A431 cells to IC50 for chloroquine-sensitive Plasmodium falciparum FCA10/GHA; assay type: functional, A-431
[3] = system: Plasmodium falciparum; test: Antiplasmodial activity after 72 hrs against chloroquine-sensitive Plasmodium falciparum FCA10/GHA as LDH activity; assay type: functional, organism-based
[4] = system: Plasmodium falciparum; test: Antiplasmodial activity after 72 hrs against chloroquine-sensitive Plasmodium falciparum FCA10/GHA at 500 uM by LDH activity; assay type: functional, organism-based

Structure (SMILES) | CC50 [1] [µM] | Ratio [2] | IC50 [3] [µM] | Activity [4]
CC(=O)OC[C@@]12[C@@H](OC(C)=O)C[C@@H](C)[C@](C)(CCC3=CC(=O)OC3)[C@H]1CCC[C@]21CO1 [AJUGARIN I] | > 88 | >4 | 23 | –
CC(=O)O[C@@]1(C)C[C@@H](O)[C@]2(O)C=CO[C@@H](O[C@@H]3O[C@H](CO)[C@@H](O)[C@H](O)[C@H]3O)[C@@H]21 | 310 | – | – | inactive
CC(C)C/C=C/C[C@H]1CC[C@@H]2[C@]1(C)CCC1[C@]23C=C[C@]2(C[C@@H](O)CC[C@]12C)OO3 (some centres undefined) | > 23 | >3 | 8.2 | –
O=c1[nH]cc(F)c(=O)[nH]1 [FLUOROURACIL] | 44 | – | – | –
